Experimental findings from BindingDB's records for doi:10.1021/jm034188j (Morphochem, 2004) are described below.

In the assay the target is Methionine aminopeptidase (Staphylococcus aureus (strain MW2), UniProt P0A079). Briefly: MetAP Inhibition Assay. As to conditions: pH 7.5; 22 °C. On the procedure:
The MetAP reaction with Co2+ as a cofactor is coupled to a prolyl aminopeptidase (ProAP) using Met-Pro-p-nitroanilide as substrate. MetAP-catalyzed cleavage of the N-terminal methionine produces prolyl-p-nitroanilide, which is rapidly hydrolyzed by ProAP to release a chromogenic product. This allows the MetAP reaction to be continuously monitored at 405 nm on a UVVIS spectrophotometer. The initial rate was calculated from the early part of the reaction progress curve (<5 min). Activity assays were performed in triplicate using eight to 16 concentrations of substrate or inhibitor.

Chain of Methionine aminopeptidase (P0A079 whole entry): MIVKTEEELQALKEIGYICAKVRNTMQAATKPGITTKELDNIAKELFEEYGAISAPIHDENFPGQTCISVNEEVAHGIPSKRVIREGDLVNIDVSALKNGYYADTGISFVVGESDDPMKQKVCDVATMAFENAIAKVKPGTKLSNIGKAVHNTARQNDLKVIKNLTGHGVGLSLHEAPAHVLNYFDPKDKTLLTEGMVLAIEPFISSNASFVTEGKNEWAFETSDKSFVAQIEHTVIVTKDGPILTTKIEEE

Broadly, the IC50 is the concentration needed to halve the response being measured. Lower therefore signals inhibition by little substance. In turn, `CSCC[C@H](N)C(=O)c1nccs1` [(2S)-2-amino-4-(methylsulfanyl)-1-(1,3-thiazol-2-yl)butan-1-one] yielded an IC50 of 19 µM.

For `CSCC[C@H](N)C(=O)c1ccccn1` [(2S)-2-amino-4-(methylsulfanyl)-1-(pyridin-2-yl)butan-1-one], the half-inhibitory concentration (IC50) was determined as 16 µM.
